{"source": "PubChem BioAssay AID2060503", "about": "(Molecular Pharmacology Branch, DTP, NCI, 2025);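 also: spheroids exposed to agents for 7 days before readout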;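 as to viability, T/C: percent viability relative to DMSO vehicle control taken as 100%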", "tested_on": "817829-284-R-J1-PDC complex spheroids, viability", "assay": "Anticancer human tumor 817829-284-R-J1-PDC patient-derived colon adenocarcinoma cell line growth inhibition [GQUAD]", "details": "for IC50: curve of first compound; for viability, T/C: stronger effect = lower value", "outline": "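Viability of tumor cells grown as complex spheroids with endothelial and stromal cells, exposed to drug combinations. Top concentration at or near clinical Cmax (else 10 microM), diluted in half-log increments.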", "data": [{"smiles": "Cc1[nH]c2ccccc2c1CCNCc1ccc(/C=C/C(=O)NO)cc1", "note": "+ Cc1cnc(CNC(=O)c2c(=O)c3ccc(N4CCCN(C)CC4)nc3n3c2sc2ccccc23)cn1", "values": [{"measurement": "IC50", "setting": "second compound 0.0316 µM", "result": 7.25, "unit": "nM"}, {"measurement": "IC50", "setting": "second compound 0.1 µM", "result": "< 0.999", "unit": "nM"}, {"measurement": "IC50", "setting": "second compound 0.316 µM", "result": "< 0.999", "unit": "nM"}, {"measurement": "IC50", "setting": "second compound 1 µM", "result": "< 0.999", "unit": "nM"}, {"measurement": "IC50", "setting": "second compound 3.16 µM", "result": "< 0.999", "unit": "nM"}, {"measurement": "IC50", "setting": "second compound 10 µM", "result": "< 0.999", "unit": "nM"}, {"measurement": "viability, T/C", "setting": "second compound 0.0316 µM, first compound 0.000999 µM", "result": 83.2, "unit": "%"}, {"measurement": "viability, T/C", "setting": "second compound 0.0316 µM, first compound 0.00316 µM", "result": 67.1, "unit": "%"}, {"measurement": "viability, T/C", "setting": "second compound 0.0316 µM, first compound 0.00999 µM", "result": 44.2, "unit": "%"}, {"measurement": "viability, T/C", "setting": "second compound 0.0316 µM, first compound 0.0316 µM", "result": 17.7, "unit": "%"}, {"measurement": "viability, T/C", "setting": "second compound 0.0316 µM, first compound 0.0999 µM", "result": 5.1, "unit": "%"}, {"measurement": "viability, T/C", "setting": "second compound 0.0316 µM, first compound 0.316 µM", "result": 0.06, "unit": "%"}, {"measurement": "viability, T/C", "setting": "second compound 0.1 µM, first compound 0.000999 µM", "result": 27.4, "unit": "%"}, {"measurement": "viability, T/C", "setting": "second compound 0.1 µM, first compound 0.00316 µM", "result": 31.7, "unit": "%"}, {"measurement": "viability, T/C", "setting": "second compound 0.1 µM, first compound 0.00999 µM", "result": 21.3, "unit": "%"}, {"measurement": "viability, T/C", "setting": "second compound 0.1 µM, first compound 0.0316 µM", "result": 18.4, "unit": "%"}, {"measurement": "viability, T/C", "setting": "second compound 0.1 µM, first compound 0.0999 µM", "result": 6.46, "unit": "%"}, {"measurement": "viability, T/C", "setting": "second compound 0.1 µM, first compound 0.316 µM", "result": 0.06, "unit": "%"}, {"measurement": "viability, T/C", "setting": "second compound 0.316 µM, first compound 0.000999 µM", "result": 21.5, "unit": "%"}, {"measurement": "viability, T/C", "setting": "second compound 0.316 µM, first compound 0.00316 µM", "result": 24.8, "unit": "%"}, {"measurement": "viability, T/C", "setting": "second compound 0.316 µM, first compound 0.00999 µM", "result": 17.1, "unit": "%"}, {"measurement": "viability, T/C", "setting": "second compound 0.316 µM, first compound 0.0316 µM", "result": 15.9, "unit": "%"}, {"measurement": "viability, T/C", "setting": "second compound 0.316 µM, first compound 0.0999 µM", "result": 4.53, "unit": "%"}, {"measurement": "viability, T/C", "setting": "second compound 0.316 µM, first compound 0.316 µM", "result": 0.05, "unit": "%"}, {"measurement": "viability, T/C", "setting": "second compound 1 µM, first compound 0.000999 µM", "result": 18.3, "unit": "%"}, {"measurement": "viability, T/C", "setting": "second compound 1 µM, first compound 0.00316 µM", "result": 20.6, "unit": "%"}, {"measurement": "viability, T/C", "setting": "second compound 1 µM, first compound 0.00999 µM", "result": 15.7, "unit": "%"}, {"measurement": "viability, T/C", "setting": "second compound 1 µM, first compound 0.0316 µM", "result": 13.7, "unit": "%"}, {"measurement": "viability, T/C", "setting": "second compound 1 µM, first compound 0.0999 µM", "result": 3.62, "unit": "%"}, {"measurement": "viability, T/C", "setting": "second compound 1 µM, first compound 0.316 µM", "result": 0.06, "unit": "%"}, {"measurement": "viability, T/C", "setting": "second compound 3.16 µM, first compound 0.000999 µM", "result": 15.1, "unit": "%"}, {"measurement": "viability, T/C", "setting": "second compound 3.16 µM, first compound 0.00316 µM", "result": 18.6, "unit": "%"}, {"measurement": "viability, T/C", "setting": "second compound 3.16 µM, first compound 0.00999 µM", "result": 15.4, "unit": "%"}, {"measurement": "viability, T/C", "setting": "second compound 3.16 µM, first compound 0.0316 µM", "result": 11.8, "unit": "%"}, {"measurement": "viability, T/C", "setting": "second compound 3.16 µM, first compound 0.0999 µM", "result": 0.11, "unit": "%"}, {"measurement": "viability, T/C", "setting": "second compound 3.16 µM, first compound 0.316 µM", "result": 0.1, "unit": "%"}, {"measurement": "viability, T/C", "setting": "second compound 10 µM, first compound 0.000999 µM", "result": 0.1, "unit": "%"}, {"measurement": "viability, T/C", "setting": "second compound 10 µM, first compound 0.00316 µM", "result": 0.14, "unit": "%"}, {"measurement": "viability, T/C", "setting": "second compound 10 µM, first compound 0.00999 µM", "result": 0.2, "unit": "%"}, {"measurement": "viability, T/C", "setting": "second compound 10 µM, first compound 0.0316 µM", "result": 0.18, "unit": "%"}, {"measurement": "viability, T/C", "setting": "second compound 10 µM, first compound 0.0999 µM", "result": 0.2, "unit": "%"}, {"measurement": "viability, T/C", "setting": "second compound 10 µM, first compound 0.316 µM", "result": 0.2, "unit": "%"}]}]}
